Test results published in patent US20110110860A1, “MODULATION OF LDL RECEPTOR GENE EXPRESSION WITH DOUBLE-STRANDED RNAS TARGETING THE LDL RECEPTOR GENE PROMOTER” (The Board of Regents of the University of Texas System, priority 2009, published 2011).

How the values were obtained:
[1] = tested on: LDLR; assay: Western analysis of LDLR protein expression in HepG2 cells after transfection of duplex RNAs; format: cell-based, human; conditions: for effect on LDLR expression (in words): 50 nM, western analysis
Protocol: Cell culture and transfection. Unmodified, 2′-O-methyl, and 2′-fluoro RNAs with two 2′-deoxythymidine bases at the 3′ end were obtained from Integrated DNA Technologies or Alnylam Pharmaceuticals. HepG2 (American Type Culture Collection (ATCC)) and fibroblast cells (GM04281; Coriell) were cultured with Minimum Essential Medium Eagle (MEM; Sigma) supplemented with 10% FBS, 1% MEM non-essential amino acids (Sigma), and 1 mM sodium pyruvate (Sigma). HuH-7 (Japanese Collection of Research Bioresources) and SW480 cells (ATCC) were cultured with Dulbecco's Modified Eagle's Medium (Sigma) supplemented with 10% FBS and 1 mM sodium pyruvate. Cells were plated in 6-well plates at 120,000 (HepG2 and HuH-7), 60,000 (fibroblast), or 150,000 (SW480) cells/well 2 days before transfection. Duplex RNAs were transfected into cells using Lipofectamine RNAiMAX (Invitrogen). Cationic lipid (2.4 μL for 50 nM dsRNA) was added to OptiMEM (Invitrogen) containing oligonucleotides and the oligonucleotide-lipid mixture (250 μL) was incubated at room temperature for 20 min. OptiMEM (for HepG2 and fibroblast) or full media (for HuH-7 and SW480) was added to a final volume of 1.25 mL and the mixture was applied to cells. Media was exchanged 1 day later with fresh supplemented media (2 mL).
(§1) Analysis of LDLR protein expression. Cells were harvested 4 days after transfection for western blotting analysis. Cells were detached from plates using cell dissociation solution (Sigma) and lysed with lysis buffer (50 mM Tris-HCl, 120 mM NaCl, 0.5% NP-40, 1 mM EDTA, 1 mM DTT, and protease inhibitor (Calbiochem)). Protein concentrations were quantified with BCA assay kit (Thermo Scientific). SDS-PAGE was performed using 7.5% Tris-HCl gels (Bio-Rad). Gels were run at 100 V for 60 min. After gel electrophoresis, proteins were transferred to nitrocellulose membrane (Hybond-C-Extra; GE Healthcare) at 100 V for 2 h. After blocking the membrane with 5% non-fat dry milk/TBST at room temperature for 1 h, the membrane was incubated with primary antibody specific for LDLR or β-actin at the following dilution ratio: anti-LDLR antibody (ab52818; 1:10,000; abcam), anti-β-actin antibody (1:20,000; Sigma). HRP-conjugated anti-rabbit (1:10,000; Jackson ImmunoResearch) or anti-mouse (1:20,000; Sigma) secondary antibody was used for visualizing proteins using SuperSignal West Pico Chemiluminescent Substrate (Thermo Scientific). Protein bands were quantified using ImageJ software.
(§2) Analysis of Interferon Responsive Genes. mRNA levels of the interferon responsive genes including OAST, OAS2, MX1, IFITM1, and ISGF3γ were measured by qRT-PCR. agRNAs (50 nM) and Poly I:C (0-100 ng/mL; Sigma) were transfected into HepG2 cells using the cationic lipid as described above. Three days after transfection, total RNAs from dsRNA-treated, poly I:C-treated, or untreated samples were isolated using TRIzol. The RNAs were treated with DNase I at 25° C. for 10 min, followed by reverse transcription reaction at 37° C. for 2 h. qPCR was performed using iTaq SYBR Supermix and primers specific for the interferon responsive genes (Interferon Response Detection Kit; System Biosciences). LDLR protein levels on Day 4 were also measured by western blot analysis.

[2] = target: T1, AGO2 (Homo sapiens, UniProt Q9UKV8); assay: RNA immunoprecipitation (RIP) of AGO2 on the LDLR antisense transcript; format: cell-based; conditions: 50 nM, HepG2 cells
T1 construct: endogenous in cells; host or cells: HepG2
Protocol: Chromatin Immunoprecipitation (ChIP)/RNA Immunoprecipitation (RIP). HepG2 cells were seeded at 1,080,000 cells in 15 cm dishes 2 days before transfection for ChIP or RIP experiments. Two dishes were treated with activating agRNAs (LDLR-24(U/U) and LDLR-28(U/U)) or mismatch controls (LDLRmm1, LDLRmm3, and LDLRmm4) (50 nM). Four days after transfection, cells were crosslinked with 1% formaldehyde. Cells were recovered by scraping and nuclei were isolated using hypotonic lysis buffer (5 mL; 10 mM Tris-HCl (pH 7.5), 10 mM NaCl, 3 mM MgCl2, 0.5% NP-40). Nuclei were lysed in lysis buffer (1 mL; 1% SDS, 10 mM EDTA, 50 mM Tris-HCl (pH 8.1), 1× Roche protease inhibitors cocktail, 40 U/mL RNasin Plus RNase Inhibitor (Promega)) and sonicated (2 pulses, 20% power, 20 sec).
The cell lysate (100 μL) was incubated overnight with antibodies in immunoprecipitation buffer (1 mL; 0.01% SDS, 1.1% Triton-X-100, 1.2 mM EDTA, 16.7 mM Tris-HCl (pH 8.1), 167 mM NaCl, and 1× Roche protease inhibitors cocktail, 40 U/mL RNasin Plus RNase Inhibitor). Monoclonal anti-RNAP II (2 μg; Millipore) and polyclonal anti-H3K27me3 (2 μg; Millipore) antibodies were used for ChIP experiments. Polyclonal anti-AGO1 (2 μg; Millipore) and polyclonal anti-AGO2 (2 μg; Millipore) antibodies were used for RIP experiments. […] PCR products were analyzed on 2.5% agarose gel and stained with ethidium bromide.

[3] = tested on: interferon responsive genes (OAST, OAS2, MX1, IFITM1, ISGF3γ); assay: Analysis of interferon responsive genes by qRT-PCR in HepG2 cells; format: cell-based, human; conditions: agRNAs 50 nM, poly I:C 0-100 ng/mL, HepG2, three days after transfection
Protocol: as §2

[4] = tested on: LDLR; assay: Combination treatment with 25-hydroxycholesterol and agRNAs (western, HepG2); format: cell-based, human; conditions: 25-hydroxycholesterol 2 μM
Protocol: as §1
Combination treatment with 25-hydroxycholesterol and agRNAs. dsRNAs (50 nM) were transfected into HepG2 cells as described above (Day 0), and the media were exchanged one day later. […]

T1 sequence (Q9UKV8 whole entry): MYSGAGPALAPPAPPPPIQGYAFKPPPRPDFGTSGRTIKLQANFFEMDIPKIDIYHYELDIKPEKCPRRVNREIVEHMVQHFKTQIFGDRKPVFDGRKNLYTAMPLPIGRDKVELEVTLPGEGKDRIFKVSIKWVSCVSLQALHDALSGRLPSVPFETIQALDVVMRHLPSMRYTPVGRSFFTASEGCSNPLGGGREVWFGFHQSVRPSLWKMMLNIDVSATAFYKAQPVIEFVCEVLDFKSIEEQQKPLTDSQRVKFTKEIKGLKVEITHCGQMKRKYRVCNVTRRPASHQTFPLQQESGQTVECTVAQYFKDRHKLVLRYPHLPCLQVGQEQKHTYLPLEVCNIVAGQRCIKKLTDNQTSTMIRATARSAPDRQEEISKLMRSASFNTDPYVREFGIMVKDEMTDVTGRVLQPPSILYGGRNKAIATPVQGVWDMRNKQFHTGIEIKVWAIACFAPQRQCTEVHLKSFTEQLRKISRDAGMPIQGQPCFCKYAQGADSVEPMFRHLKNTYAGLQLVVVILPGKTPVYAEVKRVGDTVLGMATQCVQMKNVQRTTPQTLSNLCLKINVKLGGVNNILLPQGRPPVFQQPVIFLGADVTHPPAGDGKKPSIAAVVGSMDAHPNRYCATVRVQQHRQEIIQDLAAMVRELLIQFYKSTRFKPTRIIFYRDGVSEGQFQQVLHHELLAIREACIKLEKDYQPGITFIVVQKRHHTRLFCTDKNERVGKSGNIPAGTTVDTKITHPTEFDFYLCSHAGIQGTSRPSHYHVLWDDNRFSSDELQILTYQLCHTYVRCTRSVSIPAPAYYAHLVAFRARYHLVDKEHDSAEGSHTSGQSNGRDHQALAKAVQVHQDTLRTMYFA

Compound: LDLRmm4: mismatch duplex, three mismatches outside seed sequence; sense UGCUGUAAAUGAGGAGCGCdTdT, antisense GCGCUCCUCAUUUACAGCAdTdT (sense UGCUGUAAAUGAGGAGCGCDTDT; antisense GCGCUCCUCAUUUACAGCADTDT; chemistry not fully specified)
- effect on LDLR expression (in words) [1]: activation
- recruitment of AGO2 to the LDLR antisense transcript [2]: recruitment of AGO2

Compound: polyinosinic-polycytidylic acid [poly I:C]
- effect of poly I:C on LDLR expression ([1]; any concentrations tested (0-100 ng/mL), Day 4 western): did not upregulate LDLR expression
- interferon-responsive gene expression (OAST, OAS2, MX1, IFITM1, ISGF3γ) [3]: substantially increases

Compound: LDLR-18: agRNA duplex; sense AAAUGACGUGGGCCCCGAGdTdT, antisense CUCGGGGCCCACGUCAUUUdTdT (sense AAAUGACGUGGGCCCCGAGDTDT; antisense CUCGGGGCCCACGUCAUUUDTDT; chemistry not fully specified)
- effect on LDLR expression (in words) [1]: appeared to reduce gene expression

Compound: LDLR-65: agRNA duplex; sense CACUGCAAACUCCUCCCCCdTdT, antisense GGGGGAGGAGUUUGCAGUGdTdT (sense CACUGCAAACUCCUCCCCCDTDT; antisense GGGGGAGGAGUUUGCAGUGDTDT; chemistry not fully specified)
- effect on LDLR expression (in words) [1]: appeared to reduce gene expression

Compound: LDLRmm3: mismatch duplex disrupting predicted seed sequence; sense UCCAGAAAAUGACGUGGGCdTdT, antisense GCCCACGUCAUUUUCUGGAdTdT (sense UCCAGAAAAUGACGUGGGCDTDT; antisense GCCCACGUCAUUUUCUGGADTDT; chemistry not fully specified)
- recruitment of AGO2 to the LDLR antisense transcript [2]: not

Compound: LDLR-35: agRNA duplex; sense UCACAUUGAAAUGCUGUAAdTdT, antisense UUACAGCAUUUCAAUGUGAdTdT (sense UCACAUUGAAAUGCUGUAADTDT; antisense UUACAGCAUUUCAAUGUGADTDT; chemistry not fully specified)
- effect on LDLR expression (in words) [1]: appeared to reduce gene expression

Compound: C[C@H](CCCC(C)(C)O)[C@H]1CC[C@H]2[C@@H]3CC=C4C[C@@H](O)CC[C@]4(C)[C@H]3CC[C@]12C [25-hydroxycholesterol]
- baseline LDLR expression with 25-hydroxycholesterol alone [4]: lowers baseline LDLR expression
